Laboratory results reported in paper PMC3925156, “Β-Amylase from Starchless Seeds of Trigonella Foenum-Graecum and Its Localization in Germinating Seeds” (PLoS ONE, 2014).

Target: T1, Fenugreek β-amylase
T1 construct: gene BMY1; native, purified from ungerminated seeds (acetone, DEAE-cellulose, glycogen precipitation)
Assay: starch hydrolysis assay, Dixon plot
Type: biochemical, Trigonella foenum-graecum
Details: competitive; starch substrate, pH 5.0, 30°C, 10 min preincubation

Row | Ki [mM] | Compound
1 | 2.32 | OC[C@H]1O[C@@](CO)(O[C@H]2O[C@H](CO)[C@@H](O)[C@H](O)[C@H]2O)[C@@H](O)[C@@H]1O [sucrose]
2 | 3.97 | OC[C@H]1O[C@@H]2O[C@H]3[C@H](O)[C@@H](O)[C@@H](O[C@H]4[C@H](O)[C@@H](O)[C@@H](O[C@H]5[C@H](O)[C@@H](O)[C@@H](O[C@H]6[C@H](O)[C@@H](O)[C@@H](O[C@H]7[C@H](O)[C@@H](O)[C@@H](O[C@H]1[C@H](O)[C@H]2O)O[C@@H]7CO)O[C@@H]6CO)O[C@@H]5CO)O[C@@H]4CO)O[C@@H]3CO [α-cyclodextrin]
